# Experimental data from US10092551B2, “Spiro-thiazolones” (Hoffmann-La Roche Inc., priority 2014, dated 2018).
# Counter-ions that a name gives are not always drawn.
# Target: human V1a receptor (Homo sapiens (Human), UniProt P37288)
# Assay: human V1a receptor binding studies (3H-Vasopressin, SPA beads)
# Settings: membranes of HEK293 cells transiently transfected with human V1a receptor, Ki by Cheng-Prussoff
# Outline: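 Membranes from HEK293 cells transiently expressing cloned human V1a receptor, bound on yttrium silicate SPA beads with 4 nM 3H-vasopressin (added stock) and serially diluted compound, 1 h at room temperature. Non-specific binding defined with cold vasopressin; IC50 by non-linear regression, Ki via Cheng-Prusoff.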
# human V1a receptor, sequence (P37288 whole entry): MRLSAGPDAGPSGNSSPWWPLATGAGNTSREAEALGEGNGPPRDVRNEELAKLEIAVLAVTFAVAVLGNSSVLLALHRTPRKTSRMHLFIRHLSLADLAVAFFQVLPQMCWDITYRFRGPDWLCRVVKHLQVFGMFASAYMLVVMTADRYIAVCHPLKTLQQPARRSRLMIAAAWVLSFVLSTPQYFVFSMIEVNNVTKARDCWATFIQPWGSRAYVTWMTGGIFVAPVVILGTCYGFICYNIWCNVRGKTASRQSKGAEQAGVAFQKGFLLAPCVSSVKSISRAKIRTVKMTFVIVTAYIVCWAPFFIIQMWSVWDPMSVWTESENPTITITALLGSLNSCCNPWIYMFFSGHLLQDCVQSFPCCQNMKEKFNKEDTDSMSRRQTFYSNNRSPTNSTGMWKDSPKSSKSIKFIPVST
row,SMILES,pKi hV1a
1,"C/C(CO[Si](C)(C)C(C)(C)C)=C1/SC(N2CCC3(CC2)OCc2ccccc23)=NC1=O [Example 59, (5Z)-5-(1-{[tert-butyl(dimethyl)silyl]oxy}propan-2-ylidene)-2-(1′H,3H-spiro[2-benzofuran-1,4′-piperidin]-1′-yl)-1,3-thiazol-4(5H)-one]",6.5
2,"O=C1N=C(N2CCC3(CC2)OC(=O)c2ccccc23)S/C1=C(/CO)c1ccc(Cl)nc1 [Example 145, 1′-{(5E)-5-[1-(6-chloropyridin-3-yl)-2-hydroxyethylidene]-4-oxo-4,5-dihydro-1,3-thiazol-2-yl}-3H-spiro[2-benzofuran-1,4′-piperidin]-3-one]",8.0
3,"C/C(=C1\SC(N2CCC3(CC2)OCc2ccccc23)=NC1=O)C1CCCCC1 [Example 28, (5E)-5-(1-cyclohexylethylidene)-2-(1′H,3H-spiro[2-benzofuran-1,4′-piperidin]-1′-yl)-1,3-thiazol-4(5H)-one]",7.9
4,"C/C(=C1/SC(N2CCC3(CC2)OCc2ccccc23)=NC1=O)c1ccc(Cl)cc1 [Example 26, (5Z)-5-[1-(4-chlorophenyl)ethylidene]-2-(1′H,3H-spiro[2-benzofuran-1,4′-piperidin]-1′-yl)-1,3-thiazol-4(5H)-one]",9.2
5,"O=C1N=C(N2CCC3(CC2)OCc2ccccc23)S/C1=C(/CF)c1ccc(Cl)cc1 [Example 23, (5E/Z)-5-[1-(4-chlorophenyl)-2-fluoroethylidene]-2-(1′H,3H-spiro[2-benzofuran-1,4′-piperidin]-1′-yl)-1,3-thiazol-4(5H)-one]",9.4
6,"C/C(=C1/SC(N2CCC3(CC2)OC(=O)c2ccccc23)=NC1=O)c1ccc(Cl)cc1 [Example 3, 1′-{(5E/Z)-5-[1-(4-chlorophenyl)ethylidene]-4-oxo-4,5-dihydro-1,3-thiazol-2-yl}-3H-spiro[2-benzofuran-1,4′-piperidin]-3-one]",9.0
7,"O=C1N=C(N2CCC3(CC2)OCc2ccccc23)S/C1=C\c1ccccn1 [Example 90, (5Z)-5-(pyridin-2-ylmethylidene)-2-(1′H,3H-spiro[2-benzofuran-1,4′-piperidin]-1′-yl)-1,3-thiazol-4(5H)-one]",7.3
8,"C/C(=C1/SC(N2CCC3(CC2)OCc2ccccc23)=NC1=O)c1ccc(Cl)cc1 [Example 1, (5E/Z)-5-[1-(4-chlorophenyl)ethylidene]-2-(1′H,3H-spiro[2-benzofuran-1,4′-piperidin]-1′-yl)-1,3-thiazol-4(5H)-one]",8.9
9,"O=C1N=C(N2CCC3(CC2)OCc2ccccc23)S/C1=C1/C(=O)Nc2ccccc21 [Example 74, (3E/Z)-3-[4-oxo-2-(1′H,3H-spiro[2-benzofuran-1,4′-piperidin]-1′-yl)-1,3-thiazol-5(4H)-ylidene]-1,3-dihydro-2H-indol-2-one]",7.5
10,"C/C(=C1/SC(N2CCC3(CC2)OCc2ccccc23)=NC1=O)c1nc[nH]c1C [Example 109, (5E/Z)-5-[1-(5-methyl-1H-1-imidazol-4-yl)ethylidene]-2-(1′H,3H-spiro[2-benzofuran-1,4′-piperidin]-1′-yl)-1,3-thiazol-4(5H)-one]",6.6
11,"O=C1N=C(N2CCC3(CC2)OCc2ccccc23)SC1=C1c2ccccc2CCc2ccccc21 [Example 98, 5-(10,11-dihydro-5H-dibenzo[a,d][7]annulen-5-ylidene)-2-(1′H,3H-spiro[2-benzofuran-1,4′-piperidin]-1′-yl)-1,3-thiazol-4(5H)-one]",8.6
12,"COC/C(=C1/SC(N2CCC3(CC2)OCc2ccccc23)=NC1=O)c1ccccc1 [Example 92, (5E)-5-(2-methoxy-1-phenylethylidene)-2-(1′H,3H-spiro[2-benzofuran-1,4′-piperidin]-1′-yl)-1,3-thiazol-4(5H)-one]",9.0
13,"O=C1N=C(N2CCC3(CC2)OCc2ccccc23)S/C1=C(/CO)c1ccccc1 [Example 124, (5E)-5-(2-hydroxy-1-phenylethylidene)-2-(1′H,3H-spiro[2-benzofuran-1,4′-piperidin]-1′-yl)-1,3-thiazol-4(5H)-one]",9.3
14,"O=C1N=C(N2CCC3(CC2)OC(=O)c2ccccc23)S/C1=C(\CO)c1ccc(Cl)nc1 [Example 147, 1′-{(5Z)-5-[1-(6-chloropyridin-3-yl)-2-hydroxyethylidene]-4-oxo-4,5-dihydro-1,3-thiazol-2-yl}-3H-spiro[2-benzofuran-1,4′-piperidin]-3-one]",8.0
15,"CC(C)/C(=C1\SC(N2CCC3(CC2)OCc2ccccc23)=NC1=O)c1ccc(Cl)nc1 [Example 132, (5E)-5-[1-(6-chloropyridin-3-yl)-2-methylpropylidene]-2-(1′H,3H-spiro[2-benzofuran-1,4′-piperidin]-1′-yl)-1,3-thiazol-4(5H)-one]",7.8
16,"O=C1N=C(N2CCC3(CC2)OCc2ccccc23)SC1=C1CCS(=O)(=O)CC1 [Example 60, 5-(1,1-dioxidotetrahydro-4H-thiopyran-4-ylidene)-2-(1′H,3H-spiro[2-benzofuran-1,4′-piperidin]-1′-yl)-1,3-thiazol-4(5H)-one]",8.0
17,"C/C(=C1/SC(N2CCC3(CC2)OCc2ccccc23)=NC1=O)c1cccc(Cl)c1 [Example 12, (5E/Z)-5-[1-(3-chlorophenyl)ethylidene]-2-(1′H,3H-spiro[2-benzofuran-1,4′-piperidin]-1′-yl)-1,3-thiazol-4(5H)-one]",8.2
18,"C/C(=C1/SC(N2CCC3(CC2)OCc2ccccc23)=NC1=O)C1CCCCC1 [Example 29, (5Z)-5-(1-cyclohexylethylidene)-2-(1′H,3H-spiro[2-benzofuran-1,4′-piperidin]-1′-yl)-1,3-thiazol-4(5H)-one]",8.7
19,"C/C(=C1/SC(N2CCC3(CC2)OCc2ncccc23)=NC1=O)c1oc(C)nc1C [Example 167, (5E/Z)-5-[1-(2,4-dimethyl-1,3-oxazol-5-yl)ethylidene]-2-(1′H,7H-spiro[furo[3,4-b]pyridine-5,4′-piperidin]-1′-yl)-1,3-thiazol-4(5H)-one]",6.5
20,"O=C1N=C(N2CCC3(CC2)OCc2ccccc23)SC1=C1CCCC1 [Example 53, 5-cyclopentylidene-2-(1′H,3H-spiro[2-benzofuran-1,4′-piperidin]-1′-yl)-1,3-thiazol-4(5H)-one]",8.3
21,"C/C(=C1/SC(N2CCC3(CC2)OCc2ccccc23)=NC1=O)c1cccnc1 [Example 39, (5Z)-5-[1-(pyridin-3-yl)ethylidene]-2-(1′H,3H-spiro[2-benzofuran-1,4′-piperidin]-1′-yl)-1,3-thiazol-4(5H)-one]",8.9
22,"O=C1N=C(N2CCC3(CC2)OC(=O)c2ccccc23)S/C1=C(\CO)c1ccccc1 [Example 142, 1′-[(5Z)-5-(2-hydroxy-1-phenylethylidene)-4-oxo-4,5-dihydro-1,3-thiazol-2-yl]-3H-spiro[2-benzofuran-1,4′-piperidin]-3-one]",8.4
23,"COCC(COC)=C1SC(N2CCC3(CC2)OCc2ccccc23)=NC1=O [Example 15, 5-(1,3-dimethoxypropan-2-ylidene)-2-(1′H,3H-spiro[2-benzofuran-1,4′-piperidin]-1′-yl)-1,3-thiazol-4(5H)-one]",8.8
24,"C/C(=C1/SC(N2CCC3(CC2)OCc2ccccc23)=NC1=O)c1ccco1 [Example 35, (5Z)-5-[1-(furan-2-yl)ethylidene]-2-(1′H,3H-spiro[2-benzofuran-1,4′-piperidin]-1′-yl)-1,3-thiazol-4(5H)-one]",8.9
25,"CC/C(=C1/SC(N2CCC3(CC2)OCc2ccccc23)=NC1=O)c1ccc(Cl)cc1 [Example 13, (5E/Z)-5-[1-(4-chlorophenyl)propylidene]-2-(1′H,3H-spiro[2-benzofuran-1,4′-piperidin]-1′-yl)-1,3-thiazol-4(5H)-one]",8.0
26,"C/C(=C1/SC(N2CCC3(CC2)OCc2ccccc23)=NC1=O)c1ccccc1F [Example 57, (5Z)-5-[1-(2-fluorophenyl)ethylidene]-2-(1′H,3H-spiro[2-benzofuran-1,4′-piperidin]-1′-yl)-1,3-thiazol-4(5H)-one]",9.0
27,"O=C1N=C(N2CCC3(CC2)OCc2ccccc23)SC1=C1c2ccccc2C=Cc2ccccc21 [Example 99, 5-(5H-dibenzo[a,d][7]annulen-5-ylidene)-2-(1′H,3H-spiro[2-benzofuran-1,4′-piperidin]-1′-yl)-1,3-thiazol-4(5H)-one]",8.4
28,"[2H]C([2H])([2H])/C(=C1/SC(N2CCC3(CC2)OCc2ccccc23)=NC1=O)c1ccc(C)nc1 [Example 169, (5Z)-5-[1-(6-methylpyridin-3-yl)(^2H3)ethylidene]-2-(1′H,3H-spiro[2-benzofuran-1,4′-piperidin]-1′-yl)-1,3-thiazol-4(5H)-one]",8.8
29,"C/C(=C1/SC(N2CCC3(CC2)OCc2ccccc23)=NC1=O)c1cccn1C [Example 37, (5Z)-5-[1-(1-methyl-1H-pyrrol-2-yl)ethylidene]-2-(1′H,3H-spiro[2-benzofuran-1,4′-piperidin]-1′-yl)-1,3-thiazol-4(5H)-one]",9.1
30,"C/C(=C1\SC(N2CCC3(CC2)OCc2ccccc23)=NC1=O)c1ccc(Cl)cc1 [Example 27, (5E)-5-[1-(4-chlorophenyl)ethylidene]-2-(1′H,3H-spiro[2-benzofuran-1,4′-piperidin]-1′-yl)-1,3-thiazol-4(5H)-one]",8.3

# Same assay, conditions: membranes of HEK293 cells transiently transfected with human V1a receptor, Ki by Cheng-Prussoff, read-out: pKi hV1a (converted)
row,SMILES,Ki [nM]
1,"NCC(=C1SC(N2CCC3(CC2)OCc2ccccc23)=NC1=O)c1ccccc1 (racemic) [Example 160, (5E/Z)-5-(2-amino-1-phenylethylidene)-2-(1′H,3H-spiro[2-benzofuran-1,4′-piperidin]-1′-yl)-1,3-thiazol-4(5H)-one trifluoroacetate]",5.01
